Measured values reported in patent EP0333028A1, “1-Substituted 4-pentafluorophenoxypiperidines, a process for their preparation and their use as medicaments” (HOECHST-ROUSSEL PHARMACEUTICALS INCORPORATED, priority 1988, dated 1989).

Tests used:
Format in all cases: in vivo
[1] = tested on: male mice (Charles River, CD-1); assay: tetrabenazine induced ptosis assay (TBZ); conditions: Mus musculus, ip, 50% inhibition of tetrabenazine-induced ptosis, read-out: Antidepressant Activity TBZ ED₅₀
Protocol: The compounds of this invention are also useful as antidepressants by virtue of their ability to elicit an antidepressant response in mammals. […] In the tetrabenazine induced ptosis assay, male mice (Charles River, CD-1), weighing 20 to 39 g, are used in test groups of five animals. Test compounds are dissolved, or suspended with 1 drop of Tween-80, in distilled water and administered to the animals in volumes of 10 cc per kg of body weight. Tetrabenazine methanesulfonate (76.78% as the free base) is dissolved in distilled water and the concentration of the solution is adjusted so that the dose, administered intraperitoneally (i.p.) to the animals, is 40 mg of tetrabenazine base per kg of animal body weight. The test compound is administered intraperitoneally (i.p.) or perorally (p.o.) to the subject animals, and the tetrabenazine solution is administered 30 minutes or 60 minutes, respectively, thereafter. […] The subject animals are placed in individual plastic containers of the size 26.7 cm x 20.3 cm x 15.2 cm (10.1/2" x 8" x 6") thirty (i.p.) and sixty minutes (p.o.) after administration of the tetrabenazine solution, and one minute thereafter, the animals scored for ptosis on the following scale: [table] […] The results are discarded and the test is repeated, if the control score is determined to be less than 17. […]

[2] = tested on: male mice (Charles River, CD-1); assay: supramaximal electroshock (SES) assay; conditions: Mus musculus, ip, protection against extensor tonus after electroshock, read-out: Anticonvulsant Activity SES ED₅₀
Protocol: (§1) The compounds of this invention are useful as anticonvulsants due to their anticonvulsant activity in mammals. Anticonvulsant activity is measured in male mice using the supramaximal electroshock (SES) assay described in Arch. Int. Pharmacodyn. 92, pp. 97-107, (1952) and the metrazol lethality assay (MTZ) described in J. Pharmacol. Exp. Ther., 81, 402 (1944).
Groups of male mice (Charles River, CD-1) weighing 18 to 30 g are employed in the SES assay. Test compounds are dissolved in distilled water, or if insoluble, suspended in water containing one drop of a surfactant, such as Tween-80. Test compounds are generally administered intraperitoneally at a dose of 10 ml of solution, or suspension, per kg of animal body weight. The output terminals of an A.C. shocker, which delivers 206 volts rms for 300 msec, are placed across the animals' eyes, an electrode paste coating assuring contact of the terminals with the eyes. The test compound is administered and thereafter the subject animals are shocked.
Protection is expressed as normalized percent inhibition relative to vehicle control. [formula] A time response is carried out using 6 animals per group. Animals are tested at 30, 60 and 120 minutes post drug. Additional time periods are tested if indicated by previous tests. A dose range determination is generally reserved for those compounds which inhibit convulsions by greater than about 45-55% at the screening dose employed at the time the test was performed. When the peak activity time has been determined, a dose response is initiated, using 10 animals per group at that time period.

[3] = tested on: male mice (Charles River, CD-1); assay: Metrazol lethality assay (MTZ); conditions: Mus musculus, po, protection against Metrazol lethality, read-out: Anticonvulsant Activity MTZ ED₅₀
Protocol: as §1
Groups of male mice (Charles River, CD-1), weighing 18 to 30 grams are employed in the Metrazol lethality assay. Test compounds are dissolved in distilled water or if insoluble, suspended in water, to which a surfactant, such as Tween-80 is added. The test compounds are administered orally, the administered dose being dissolved or suspended in 10 ml of solution or suspension per kg of animal body weight. Control aminals (2 mice/group) receive water or water and Tween-80, i.e., the vehicle for administration of the test compound. Metrazol (pentylenetetrazol) is dissolved in water (concentration 225 mg of Metrazol/10 ml of solution), and the solution is administered subcutaneously to groups of five animals each at one or more time intervals of 15, 30, 60, 90, or 120 minutes after administration of the test compound. The number of animal alive 15 minutes after treatment with Metrazol is determined and recorded. The following formula is employed to calculate the percent protection against Metrazol lethality. [formula]
A dose range determination is performed by substantially the same procedure as the time response determination. In the dose range determination, five groups of 10 animals per group are employed. This determination is generally reserved for those compounds which protect against lethality by greater than 70% at the screening dose employed.

[4] = tested on: spontaneous hypertensive rat; assay: antihypertensive activity, indirect tail cuff method (SHR); conditions: 50 mg/kg p.o. for three days, measured on the third day, decrease in mean arterial blood pressure
Protocol: In this procedure a group of five animals is treated orally for three days with the test compound in relation to a control group of the same number. The drop in blood pressure is measured on the third day following administration. […]

Compound | ED50 [1] [mg/kg] | ED50 [2] [mg/kg] | ED50 [3] [mg/kg] | mm dec. in blood pressure at 50 mg/kg p.o. [4] [mm Hg]
CN(C)CCC=C1c2ccccc2CCc2ccccc21 [Amitriptyline, reference compound] | 1.5 | – | – | –
CNC(=O)N1CCC(Oc2c(F)c(F)c(F)c(F)c2F)CC1 [Example 1, 1-[(N-Methylamino)carbonyl]-4-(2,3,4,5,6-pentafluorophenoxy)piperidine] | 11.3 | 62.5 | 35.9 | –
CN(C)C(=O)N1CCC(Oc2c(F)c(F)c(F)c(F)c2F)CC1 [Example 2, 1-[(N,N-Dimethylamino)carbonyl]-4-(2,3,4,5,6-pentafluorophenoxy)piperidine] | – | 50.2 | 40.4 | –
CC(=O)N1CCC(Oc2c(F)c(F)c(F)c(F)c2F)CC1 [Example 6, 1-Acetyl-4-(2,3,4,5,6-pentafluorophenoxy)piperidine] | – | – | – | 36
NC(=O)N1CCC(Oc2c(F)c(F)c(F)c(F)c2F)CC1 [Example 7, 1-Aminocarbonyl-4-(2,3,4,5,6-pentafluorophenoxy)piperidine] | – | – | – | 39
N=C(N)NCCN1CCCCCCC1 [Guanethidine, reference compound] | – | – | – | 20
CCC1(c2ccccc2)C(=O)NC(=O)NC1=O [Phenobarbital, reference compound] | – | 8.4 | 16.9 | –
